{"source": "paper PMC11402846", "about": "“Does a postmortem redistribution affect the concentrations of the 7 azaindole-derived synthetic cannabinoid 5F-MDMB-P7AICA in tissues and body fluids following pulmonary administration to pigs?” (Archives of Toxicology, 2024)", "key": {"[1]": {"experiment": "Perimortem and postmortem concentrations in tissues and body fluids after pulmonary administration of 5F-MDMB-P7AICA to pigs (LC-MS/MS)", "type": "in vivo", "conditions": "pig", "description": "The experiments were conducted in compliance with the German legislation on protection of animals and the National Institutes of Health Guide for the Care and Use of Laboratory Animals (permission number 32/2018). Six domestic male pigs (Swabian Hall strain; body weight [BW] 40–51.2 kg, 3 months old) were kept with free access to water and standard daily food (OlymPig fattening feed, Raiffeisen, Münster, Germany). One night prior to the experiments, the animals were kept fasting. […] The room temperature was 22 ± 1 °C with a humidity of 55 ± 10%.\nAs previously described (Doerr et al. [2020]; Schaefer et al. [2019], [2020a]), an ethanolic solution of 5 mg/mL 5F-MDMB-P7AICA was prepared. An aliquot of 1.600–2.048 mL was filled up with ethanol to a total volume of 2 mL, if needed to achieve a concentration of 200 µg per kg BW. The SC was administered inhalatively over 6.5–8 min, using a M-Neb flow + ventilation ultrasonic nebulizer MN-300/7 (Nebutec, Elsenfeld, Germany) in the inspiration-triggered mode.\nAnimal euthanasia was conducted eight hours after the drug administration using T 61 (embutramide, 0.12 mL/kg BW, Intervet Deutschland GmbH, Unterschleißheim, Germany). Afterwards, the abdominal cavity was opened. Samples of the following organs, tissues and body fluids were collected (PMI 0) and stored at − 20 °C until further analysis: Brain (cerebrum), lungs and liver with no differentiation between the lobes, kidneys, muscle tissue (from the hindleg), adipose tissue (subcutaneous (sc), dorsal, perirenal), bile fluid, duodenum content, urine (only at PMI 0) and PB (V. jugularis) as well as CB.\nThe abdominal cavity was sutured leaving the organs in situ and the animal bodies were kept at room temperature in a supine position. Analogously, samples were taken again after 24, 48 and 72 h (PMI 1–3), respectively. Yet, PM PB specimens were obtained by sampling the coagulated blood from the V. femoralis or V. brachialis. For this purpose, the whole vessel was sampled and the blood was drawn therefrom using a pipette with a wide lumen.\nSpecimens were prepared according to a previous published method (Schaefer et al. [2017], [2019], [2020a]) with changes regarding the applied buffers and the amount of acetonitrile. An amount of 2 g of solid tissue (brain, lung, liver, kidney and muscle tissue) was homogenized (1:5 w/w with water), respectively and 1 g of body fluids (bile fluid, duodenum content, and urine) was diluted (1:10 w/w for bile and duodenum content, 1:5 w/w for urine, respectively, with water). The samples were stored at − 20 °C.\nTo determine the standard addition calibration curves, four 0.5 g aliquots were added to 20 µL of an ethanolic stable-isotope-labeled internal standard solution (SIL-IS, 1 ng/20 µL AB-FUBINACA-d4) and 25 µL of ethanol or an ethanolic solution of the analytes.\nSubsequently, the solution was mixed with 500 µL of acetate buffer and 50 µL of β-glucuronidase/arylsulfatase and incubated for 2 h at 60 °C to induce enzymatic hydrolysis of the glucuronidated DBA (phase-II metabolite).\nFor the following protein precipitation, the samples were mixed with 500 µL of acetonitrile and centrifuged at 3500g for 8 min. The supernatants were transferred to 1 mL phosphate buffer (pH 9) vortexed and centrifuged at 3500g for 8 min again.\nSolid phase extraction (SPE) was carried out using Strata C18 end capped cartridges (Phenomenex, Aschaffenburg, Germany), previously conditioned with 2 × 3 mL methanol and 3 mL phosphate buffer. After loading the samples, the columns were washed with 3 mL phosphate buffer, 3 mL acetic acid (0.25 M) and 3 mL deionized water, respectively. 60 μL acetone was added and columns were dried for 5 min using negative pressure (about 33 kPa). Thereafter, the analytes were eluted with a mixture of 1.5 mL methanol-acetone (1:1, v/v) and the eluate was evaporated under a gentle stream of nitrogen at 60 °C. […]"}, "[2]": {"design": "method as in Walle et al. [2023]", "conditions": "authentic fatal case, comparable survival time after drug intake; ref Walle et al. [2023]; cited from earlier work"}, "P-glycoprotein": {"test_system": "P-glycoprotein", "design": "method as in unpublished data of the authors", "conditions": "ref unpublished data of the authors; cited from earlier work"}, "[3]": {"conditions": "200 µg/kg BW inhalative, PMI 0 (8 h after administration)"}, "[4]": {"conditions": "200 µg/kg BW inhalative, PMI 1 (24 h after euthanasia, room temperature)"}, "[5]": {"conditions": "200 µg/kg BW inhalative, PMI 2 (48 h after euthanasia, room temperature)"}, "[6]": {"conditions": "200 µg/kg BW inhalative, PMI 3 (72 h after euthanasia, room temperature)"}}, "data": [{"smiles": "COC(=O)C(NC(=O)c1cn(CCCCCF)c2ncccc12)C(C)(C)C", "note": "(stereo not shown) [5F-MDMB-P7AICA, methyl[2-[1-(5-fluoropentyl)-1H-pyrrolo[2,3-b]pyridin-3-yl]formamido]-3,3-dimethylbutanoate]", "values": [{"measurement": "Mean concentration ± SD in CB (central blood)", "setting": "[1]; [3]", "result": "0.21 ± 0.10", "unit": "n = 6 ng/mL"}, {"measurement": "Mean concentration ± SD in bile fluid", "setting": "[1]; [3]", "result": "11 ± 9.9", "unit": "n = 6 ng/g"}, {"measurement": "Mean concentration ± SD in brain", "setting": "[1]; [3]", "result": "0.33 ± 0.15", "unit": "n = 6 ng/g"}, {"measurement": "Mean concentration ± SD in dorsal fat", "setting": "[1]; [3]", "result": "30 ± 16", "unit": "n = 6 ng/g"}, {"measurement": "Mean concentration ± SD in duodenum content", "setting": "[1]; [3]", "result": "2.7 ± 3.1", "unit": "n = 6 ng/g"}, {"measurement": "Mean concentration ± SD in kidney", "setting": "[1]; [3]", "result": "No parent compound could be found and neg"}, {"measurement": "Mean concentration ± SD in liver", "setting": "[1]; [3]", "result": "0.16 ± 0.043", "unit": "n = 3 ng/g"}, {"measurement": "Mean concentration ± SD in lung", "setting": "[1]; [3]", "result": "0.41 ± 0.26", "unit": "n = 6 ng/g"}, {"measurement": "Mean concentration ± SD in muscle", "setting": "[1]; [3]", "result": "0.62 ± 0.10", "unit": "n = 6 ng/g"}, {"measurement": "Mean concentration ± SD in perirenal fat", "setting": "[1]; [3]", "result": "33 ± 31", "unit": "n = 6 ng/g"}, {"measurement": "Mean concentration ± SD in s.c. fat", "setting": "[1]; [3]", "result": "51 ± 30", "unit": "n = 6 ng/g"}, {"measurement": "Mean concentration ± SD in urine", "setting": "[1]; [3]", "result": "No parent compound could be found and neg"}, {"measurement": "Mean concentration ± SD in CB (central blood)", "setting": "[1]; [4]", "result": "0.25 ± 0.10", "unit": "n = 5 ng/mL"}, {"measurement": "Mean concentration ± SD in PB (peripheral blood)", "setting": "[1]; [4]", "result": "0.67 ± 0.37", "unit": "n = 6 ng/mL"}, {"measurement": "Mean concentration ± SD in bile fluid", "setting": "[1]; [4]", "result": "3.5 ± 3.1", "unit": "n = 6 ng/g"}, {"measurement": "Mean concentration ± SD in brain", "setting": "[1]; [4]", "result": "0.23 ± 0.10", "unit": "n = 6 ng/g"}, {"measurement": "Mean concentration ± SD in dorsal fat", "setting": "[1]; [4]", "result": "35 ± 26", "unit": "n = 6 ng/g"}, {"measurement": "Mean concentration ± SD in duodenum content", "setting": "[1]; [4]", "result": "0.44 ± 0.22", "unit": "n = 6 ng/g"}, {"measurement": "Mean concentration ± SD in kidney", "setting": "[1]; [4]", "result": "0.090–0.10 n = 2 ng/g"}, {"measurement": "Mean concentration ± SD in liver", "setting": "[1]; [4]", "result": "0.21–0.29 n = 2 ng/g"}, {"measurement": "Mean concentration ± SD in lung", "setting": "[1]; [4]", "result": "0.50 ± 0.085", "unit": "n = 3 ng/g"}, {"measurement": "Mean concentration ± SD in muscle", "setting": "[1]; [4]", "result": "0.77 ± 0.28", "unit": "n = 6 ng/g"}, {"measurement": "Mean concentration ± SD in perirenal fat", "setting": "[1]; [4]", "result": "30 ± 20", "unit": "n = 6 ng/g"}, {"measurement": "Mean concentration ± SD in s.c. fat", "setting": "[1]; [4]", "result": "53 ± 43", "unit": "n = 6 ng/g"}, {"measurement": "Mean concentration ± SD in CB (central blood)", "setting": "[1]; [5]", "result": "0.20 ± 0.090", "unit": "n = 5 ng/mL"}, {"measurement": "Mean concentration ± SD in PB (peripheral blood)", "setting": "[1]; [5]", "result": "0.58 ± 0.35", "unit": "n = 6 ng/mL"}, {"measurement": "Mean concentration ± SD in brain", "setting": "[1]; [5]", "result": "0.10 ± 0.065", "unit": "n = 6 ng/g"}, {"measurement": "Mean concentration ± SD in dorsal fat", "setting": "[1]; [5]", "result": "25 ± 15", "unit": "n = 6 ng/g"}, {"measurement": "Mean concentration ± SD in duodenum content", "setting": "[1]; [5]", "result": "0.59 ± 0.48", "unit": "n = 5 ng/g"}, {"measurement": "Mean concentration ± SD in kidney", "setting": "[1]; [5]", "result": "0.17 ± 0.16", "unit": "n = 5 ng/g"}, {"measurement": "Mean concentration ± SD in liver", "setting": "[1]; [5]", "result": "1.1 ± 2.0", "unit": "n = 6 ng/g"}, {"measurement": "Mean concentration ± SD in lung", "setting": "[1]; [5]", "result": "0.65 ± 0.37", "unit": "n = 5 ng/g"}, {"measurement": "Mean concentration ± SD in muscle", "setting": "[1]; [5]", "result": "1.0 ± 0.67", "unit": "n = 6 ng/g"}, {"measurement": "Mean concentration ± SD in perirenal fat", "setting": "[1]; [5]", "result": "32 ± 35", "unit": "n = 6 ng/g"}, {"measurement": "Mean concentration ± SD in s.c. fat", "setting": "[1]; [5]", "result": "40 ± 28", "unit": "n = 6 ng/g"}, {"measurement": "Mean concentration ± SD in CB (central blood)", "setting": "[1]; [6]", "result": "0.24 ± 0.11", "unit": "n = 5 ng/mL"}, {"measurement": "Mean concentration ± SD in PB (peripheral blood)", "setting": "[1]; [6]", "result": "0.43 ± 0.16", "unit": "n = 6 ng/mL"}, {"measurement": "Mean concentration ± SD in brain", "setting": "[1]; [6]", "result": "0.16 ± 0.16", "unit": "n = 4 ng/g"}, {"measurement": "Mean concentration ± SD in dorsal fat", "setting": "[1]; [6]", "result": "33 ± 27", "unit": "n = 6 ng/g"}, {"measurement": "Mean concentration ± SD in duodenum content", "setting": "[1]; [6]", "result": "0.89 ± 0.71", "unit": "n = 6 ng/g"}, {"measurement": "Mean concentration ± SD in kidney", "setting": "[1]; [6]", "result": "0.23 ± 0.088", "unit": "n = 5 ng/g"}, {"measurement": "Mean concentration ± SD in liver", "setting": "[1]; [6]", "result": "0.44 ± 0.18", "unit": "n = 5 ng/g"}, {"measurement": "Mean concentration ± SD in lung", "setting": "[1]; [6]", "result": "0.71 ± 0.54", "unit": "n = 5 ng/g"}, {"measurement": "Mean concentration ± SD in muscle", "setting": "[1]; [6]", "result": "2.3 ± 2.1", "unit": "n = 6 ng/g"}, {"measurement": "Mean concentration ± SD in perirenal fat", "setting": "[1]; [6]", "result": "22 ± 19", "unit": "n = 6 ng/g"}, {"measurement": "Mean concentration ± SD in s.c. fat", "setting": "[1]; [6]", "result": "35 ± 26", "unit": "n = 6 ng/g"}, {"measurement": "Concentration in bile fluid", "setting": "[1]; 200 µg/kg BW inhalative, PMI 3 (72 h after euthanasia, room temperature), only sampled from 2 pigs", "result": "3.6–7.4 n = 2^2 ng/g"}, {"measurement": "Mean concentration ± SD in PB (peripheral blood)", "setting": "[1]; 5F-MDMB-P7AICA 200 µg/kg BW inhalative, PMI 0 (8 h after administration)", "result": "0.57 ± 0.19", "unit": "n = 6 ng/mL"}, {"measurement": "Postmortem redistribution (PMR)", "setting": "[1]; 3 days storage at room temperature", "result": "no relevant PMR was observed"}, {"measurement": "central-to-peripheral blood (C/P) concentration ratio", "setting": "[1]; PMI 0", "result": "lower than 1"}, {"measurement": "liver-to-peripheral blood (L/P) ratio", "setting": "[1]; PMI 0", "result": "< 5"}, {"measurement": "C/P concentration ratio", "setting": "[1]; PMI 1–3", "result": "< 1"}, {"measurement": "L/P concentration ratio", "setting": "[1]; PMI 1–3", "result": "< 5"}, {"measurement": "Concentration change in liver specimens", "setting": "[1]; PMI 2 and 3 versus PMI 0, p < 0.05", "result": "significant higher"}, {"measurement": "Concentration change in muscle tissue", "setting": "[1]; from PMI 0 to PMI 3, p < 0.05", "result": "significantly increased"}, {"measurement": "CB concentration in fatal case", "setting": "[2]", "result": 0.69, "unit": "ng/mL"}, {"measurement": "PB concentration in fatal case", "setting": "[2]", "result": 1.2, "unit": "ng/mL"}, {"measurement": "substrate of the P-glycoprotein", "setting": "P-glycoprotein", "result": "is a substrate of the P-glycoprotein"}]}]}
